Results taken from patent US11274132B2, “Combined preparations of PKM2 modulators and HMGB1” (Ruprecht-Karls-Universität Heidelberg, priority 2015, dated 2022).

Assays:
[1] = tested on: ATP production; assay: ATP production calculated from lactate production rates and oxygen consumption; format: cell-based, human; settings: SW480 cells; HMGB1 80 nM, 24 h
Protocol: (§1) Lactate derived from the metabolism of ^13C6-D-glucose or ^13C5-glutamine was determined by comparing the CH3 group intensities of labeled and non-labeled lactate in NMR. Mitochondrial respiration was measured using an Oroboros 1 oxygraph system. Glycolysis was measured by monitoring the conversion of 5-^3H-Glucose to ^3H2O. Incorporation of ^14C into RNA ribose from U-^14C-labelled glucose was taken as glucose utilization in the pentose phosphate shunt. Enzymatic activities were determined in subcellular fractions as previously described^24.
For analysis of ^13C-lactate efflux 1 ml of the cellular supernatant was centrifuged (8,000×g, 10 min, 4° C.) to spin down cellular debris. To 500 μl of the supernatant 10% of D2O were added respectively and transferred to 5 mm NMR sample tubes. The samples were measured with a Bruker AvanceIII 600 NMR spectrometer, equipped with a cryogenically cooled detection probe (QNP-CryoProbe™).

[2] = target: T1, PKM2 (Homo sapiens, UniProt P14618); assay: Immunoprecipitation with 125I-labeled HMGB1 (PKM2 pull-down); format: binding; set-up: endogenous in cells; settings: 125I-labeled HMGB1
Protocol: FIG. 6: Co-administration of HMGB1 and an activator (A left and right) or an inhibitor (B) of PMK2 has a synergistic cytotoxic effect, as determined in the crystal violet cytotoxicity assay (assays were performed in duplicate, * indicates p<0.05). (C) Immunoprecipitation with I125-labeled HMGB1 (PKM2 pull-down). HMGB1, like phosphotyrosine-peptides, binds close to the allosteric center of PKM2, leading to a competition in binding.

[3] = target: T2, tetrameric PK M2 (Homo sapiens, UniProt P14618); assay: Pyruvate kinase enzymatic assay in cytosolic fractions / homogenates (low PEP); format: cell-based
T2 construct: Activities of glycolytic enzymes measured in cytosolic fractions after treatment with HMGB1; endogenous in cells; host or cells: SW480, HCT116, HT29 cytosolic fractions; homogenates of human colon cancer tissue slices
Protocol: (§2) Enzymatic activities of respiratory chain complexes, glycolytic proteins and malic enzyme were determined in subcellular fractions as previously described (Kaminski, M. M. et al. T cell activation is driven by an ADP-dependent glucokinase linking enhanced glycolysis with mitochondrial reactive oxygen species generation. Cell reports 2, 1300-1315 (2012).Bruncko, M. et al. Naphthamidine urokinase plasminogen activator inhibitors with improved pharmacokinetic properties. Bioorganic & medicinal chemistry letters 15, 93-98, (2005)) using a computer-tuneable spectrophotometer (Spectramax Plus Microplate Reader, Molecular Devices; Sunny Vale, Calif., USA) operating in the dual wavelength mode; samples were analyzed in temperature-controlled 96-well plates in a final volume of 300 μl. Activity of ME1 was recorded in presence of increasing amounts of malic acid (0.02, 0.05, 0.1, 0.2, 0.5, 1, 2.5 mM). Vmax and Km were calculated using a Hanes-Woolf plot. In the presence of high substrate levels the Km for malic acid was similar in all three tested cell lines (SW480: 0.32 mM, HCT116: 0.30 mM, HT29: 0.31 mM). Vmax (mU/mg protein) values were 3.38 (SW480, 0.5-5.0 mM malic acid), 5.77 (HCT116, 0.5-5.0 mM malic acid) and 3.68 (HT29, 0.5-5.0 mM malic acid) and 1.68 (SW480, 0.02-0.2 mM malic acid), 3.24 (HCT116, 0.02-0.2 mM malic acid) and 1.89 (HT29, 0.02-0.2 mM malic acid). Two isoforms of ME1, mitochondrial (NAD(P)+dependent) ME3 and mitochondrial (NAD+dependent) ME2, had very low or no detectable activities (data not shown).

[4] = target: T3, Dimeric PK M2 (Homo sapiens, UniProt P14618); assay: Pyruvate kinase enzymatic assay (high PEP); format: cell-based; settings: colorectal cancer cells
T3 construct: Activities of glycolytic enzymes measured in cytosolic fractions after treatment with HMGB1; endogenous in cells; host or cells: SW480, HCT116, HT29 cytosolic fractions; homogenates of human colon cancer tissue slices
Protocol: as §2, with “Two isoforms of ME1, mitochondrial (NAD(P)+dependent) ME3 and mitochondrial (NAD+dependent) ME2, had very low or no detectable activities (data not shown).” left out

[5] = tested on: complex I to III; assay: Respiratory chain complex activities in mitochondrial fractions; format: cell-based, human; settings: colorectal cancer cell lines; HMGB1 80 nM, 24 h
Protocol: as §2
(§3) Cells were lysed in lysis buffer P (20 mM Tris-HCl (pH 7.4), 137 mM NaCl, 10% (v/v) glycerine, 1% Triton X-100, 2 mM EDTA, 100 mM phenylmethylsulfonyl fluoride and protease inhibitors (Complete mini from Roche). Lysates were centrifuged at 14,000×g (10 min) at 4° C. Total protein was measured by the Bradford (Bio-Rad) method. Soluble protein was resolved by SDS-PAGE, blotted onto nitrocellulose and incubated with one of the following antibodies: mouse monoclonal anti-β-actin (1:3,000, Sigma-Aldrich), rabbit anti PK M2 (1:1,000, Cell Signaling), rabbit anti-malic enzyme 1 (1:1,000, abcam). Appropriate secondary antibodies (1:3,000, horse-radish peroxidase-conjugated) were from Bio-Rad. Visualization was done by enhanced chemiluminescence technique (GE-Healthcare). Mitochondrial fractions were extracted using the ApoAlert Cell Fractionation Kit (Clontech) as described earlier (Gdynia, G. et al. BLOC1S2 interacts with the HIPPI protein and sensitizes NCH89 glioblastoma cells to apoptosis. Apoptosis: an international journal on programmed cell death 13, 437-447, (2008)).

[6] = tested on: cytochrome c oxidase (COX); assay: as above; format: cell-based, human
Protocol: as §2, §3

[7] = tested on: complex II and III; assay: as above; format: cell-based, human; settings: HMGB1 80 nM, 24 h
Protocol: as §2, §3

[8] = tested on: ATP synthase; assay: as above; format: cell-based, human; settings: colorectal cancer cell lines; HMGB1 80 nM, 24 h
Protocol: as §2, §3

[9] = tested on: pentose phosphate shunt; assay: Incorporation of 14C into RNA ribose from U-14C-labelled glucose; format: cell-based, human; settings: HMGB1 80 nM, 24 h
Protocol: as §1

[10] = target: T1, PKM2; assay: Ultrafiltration of the PK M2-HMGB1 complex; format: binding; settings: 2 μM human PK M2 and 2 μM human HMGB1
Protocol: Ultrafiltration of the PK M2-HMGB1 complex: equimolar amounts of HMGB1 and PKM2 were mixed in a final volume of 300 μl and filtrated (14000 g, 4° C.) to a final volume of 15 μl in an Amicon Ultra 0.5 ml 30k device (Merck-Millipore, Darmstadt, Germany). The retentate was adjusted to the original volume after centrifugation. Then filtrate and retentate were analyzed by Western Blot. For controls HMGB1 and PKM2 were also analyzed alone. Pure HMGB1 (2 μM) suited as a negative control.

T1 sequence (P14618 whole entry): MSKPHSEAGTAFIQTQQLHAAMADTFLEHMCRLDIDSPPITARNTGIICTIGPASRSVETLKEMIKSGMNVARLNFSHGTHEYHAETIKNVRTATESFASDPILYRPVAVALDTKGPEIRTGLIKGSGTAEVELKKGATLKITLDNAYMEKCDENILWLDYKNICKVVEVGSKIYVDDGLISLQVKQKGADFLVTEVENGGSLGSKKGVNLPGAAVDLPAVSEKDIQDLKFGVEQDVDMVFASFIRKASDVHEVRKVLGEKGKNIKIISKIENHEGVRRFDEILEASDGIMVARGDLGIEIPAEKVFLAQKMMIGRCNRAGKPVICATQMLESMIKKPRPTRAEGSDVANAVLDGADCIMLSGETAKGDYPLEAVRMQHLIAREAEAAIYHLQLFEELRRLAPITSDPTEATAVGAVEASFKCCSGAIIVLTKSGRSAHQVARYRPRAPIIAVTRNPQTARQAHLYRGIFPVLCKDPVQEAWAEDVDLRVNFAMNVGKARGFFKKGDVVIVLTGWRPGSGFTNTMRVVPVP
T2 sequence (P14618 2-531): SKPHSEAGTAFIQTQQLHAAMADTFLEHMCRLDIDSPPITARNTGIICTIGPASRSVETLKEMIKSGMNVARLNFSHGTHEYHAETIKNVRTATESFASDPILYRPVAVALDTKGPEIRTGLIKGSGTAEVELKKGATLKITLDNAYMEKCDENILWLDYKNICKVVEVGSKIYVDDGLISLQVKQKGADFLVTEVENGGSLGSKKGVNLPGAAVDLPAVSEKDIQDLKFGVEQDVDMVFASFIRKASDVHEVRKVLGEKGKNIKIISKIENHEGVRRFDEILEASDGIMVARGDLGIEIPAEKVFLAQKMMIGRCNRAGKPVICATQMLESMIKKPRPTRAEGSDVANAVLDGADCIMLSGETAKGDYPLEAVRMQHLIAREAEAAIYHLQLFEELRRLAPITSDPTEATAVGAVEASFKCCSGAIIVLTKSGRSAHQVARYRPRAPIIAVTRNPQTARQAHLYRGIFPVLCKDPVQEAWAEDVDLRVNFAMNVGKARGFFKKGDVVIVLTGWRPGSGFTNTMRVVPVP
T3 sequence (P14618 2-531 limits assumed): as the sequence (P14618 2-531) above

HMGB1: recombinant human HMGB1 protein (Sigma-Aldrich); High Mobility Group Box 1 polypeptide, human, SEQ ID NO: 4
decline of ATP production [1]: ~50%
binding to PKM2 in vivo (immunoprecipitating PKM2) [2]: specific binding
tetrameric PK M2 activity ([3]; all colorectal cancer cell lines tested, HMGB1 80 nM, 24 h): specifically inhibited
tetrameric PK M2 activity ([3]; ex vivo tissue slice cultures, HMGB1 160 nM, 72 h): specifically inhibited
Dimeric PK M2 activity [4]: unchanged
electron flow from complex I to III [5]: unchanged
COX activity ([6]; colorectal cancer cell lines, HMGB1 80 nM, 24 h): significantly lower activity levels
COX activity ([6]; primary tumor tissue slices, HMGB1 160 nM, 72 h): potent inhibition
coupled complex II and III activity ([7]; HCT116): maintained or even upregulated
coupled complex II and III activity ([7]; HT29): maintained or even upregulated
coupled complex II and III activity ([7]; SW480): decreased
ATP synthase activity [8]: not diminished
flux of glycolytic intermediates into the pentose phosphate shunt [9]: increased flux
physical interaction with PK M2 in vitro [10]: physically interacted
